These results are taken from article PMC4013053, “Identification of Selective Small Molecule Inhibitors of the Nucleotide-Binding Oligomerization Domain 1 (NOD1) Signaling Pathway” (PLoS ONE, 2014).

In assay [1] the test system is NOD1 induced NF-κB and MAPK pathways. Put plainly: Western blotting of IκBα and phospho-MAPKs in Tri-DAP stimulated 293/hNOD1 cells. The conditions noted are these: 50 µg/mL Tri-DAP 1 hour, immunoblotting. The class given is cell-based, human. Here is the method: Confluent cultures of 293/hNOD1 and -hNOD2 cells seeded in 24-well plates were serum-starved over-night, pre-incubated for 1 hour with compound and then stimulated for 1 hour with either 50 µg/mL Tri-DAP or 25 µg/mL MDP, respectively. Whole cell lysates were prepared in 1X cell lysis buffer (Cell Signaling Technology) supplemented with additional protease, aminopeptidase and phosphatase inhibitors (protease inhibitor cocktail set III, EMD Biosciences; phosphatase inhibitor sets II and III, Sigma-Aldrich). The levels of phosphorylated and total p38, JNK, ERK1/2 and total IκBα were determined by immunoblotting of ∼20 µg protein per sample using the following primary antibodies: phospho-p38 MAPK (12F8, #4631), p38 MAPK (#9212), phospho-JNK (#9251), JNK (#9252) and IκBα (#9242) all purchased from Cell Signaling Technology, and phospho-ERK1/2 (sc-7383) and ERK1/2 (sc-94) antibodies from Santa Cruz Biotechnology.

The subject of assay [2] is NOD1. The arrangement: method as in PMID 22870324. Particulars: human lung microvascular endothelial cells, 10 µg/mL iE-DAP; cited from earlier work.
Assay [3] relates to TLR4. The arrangement: method as in PMID 22870324. The conditions noted are these: human lung microvascular endothelial cells; cited from earlier work.
Assay [4] has as its target T1, NOD1 (Mus musculus, UniProt Q8BHB0).
T1 construct: following intraperitoneal injection of FK156 in a model of acute peritonitis; from tissue; host or cells: whole mouse (in vivo)
T1 sequence (Q8BHB0 1-953): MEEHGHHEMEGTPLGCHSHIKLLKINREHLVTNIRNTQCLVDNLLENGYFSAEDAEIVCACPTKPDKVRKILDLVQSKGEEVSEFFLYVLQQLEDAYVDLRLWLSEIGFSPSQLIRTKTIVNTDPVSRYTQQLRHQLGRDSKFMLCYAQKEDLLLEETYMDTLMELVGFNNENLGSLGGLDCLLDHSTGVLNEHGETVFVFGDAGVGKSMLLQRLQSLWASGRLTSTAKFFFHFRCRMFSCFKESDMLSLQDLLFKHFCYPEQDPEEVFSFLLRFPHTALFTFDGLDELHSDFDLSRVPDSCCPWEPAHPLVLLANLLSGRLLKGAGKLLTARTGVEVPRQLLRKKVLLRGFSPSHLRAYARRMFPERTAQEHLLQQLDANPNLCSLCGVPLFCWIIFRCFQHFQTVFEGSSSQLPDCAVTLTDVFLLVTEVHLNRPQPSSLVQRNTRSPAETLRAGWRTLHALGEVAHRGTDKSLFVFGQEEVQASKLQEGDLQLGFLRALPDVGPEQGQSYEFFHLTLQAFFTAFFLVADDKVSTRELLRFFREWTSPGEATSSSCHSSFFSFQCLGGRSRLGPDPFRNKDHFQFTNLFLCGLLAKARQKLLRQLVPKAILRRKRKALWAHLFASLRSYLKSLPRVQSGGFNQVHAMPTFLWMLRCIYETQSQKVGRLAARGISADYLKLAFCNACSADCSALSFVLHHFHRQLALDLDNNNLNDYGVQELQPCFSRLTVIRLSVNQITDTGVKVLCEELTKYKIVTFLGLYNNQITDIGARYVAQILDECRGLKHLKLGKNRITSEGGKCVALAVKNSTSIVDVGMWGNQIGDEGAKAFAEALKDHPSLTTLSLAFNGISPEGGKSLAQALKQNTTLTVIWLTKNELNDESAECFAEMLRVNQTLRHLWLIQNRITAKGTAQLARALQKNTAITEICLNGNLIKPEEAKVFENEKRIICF
Put plainly: FK156 acute peritonitis model in mice, serum KC and IP-10. The class given is in vivo. Particulars: oral administration, intraperitoneal FK156, data not shown. The text has this:
We speculate that the known differences in ligand recognition between human and mouse NOD1 mapped to residues within the leucine-rich repeat domains could underlie the observed differential activity of the compounds on human versus mouse NOD1 signaling.

Assay [5] relates to panel of 300 human kinases. Briefly: Kinase activity panel (Reaction Biology Corp). Particulars: 1 µM compound, 10 µM ATP, 300 kinases. In kind it is biochemical. Here is the method:
The compounds were tested in duplicate at 1 µM with a 20-minute pre-incubation with enzyme followed by addition of 10 µM ATP.

For `Cc1ccc(S(=O)(=O)Nc2cccc(C(=O)Nc3ccc4nc(C)sc4c3)c2)cc1` [Compound 16], in assay [1], the “effect on Tri-DAP induced p-JNK, p-p38 and IκBα responses” value is “reduced both phospho-JNK and the weaker phospho-p38 levels while levels of IκBα were increased”.

For the compound `Cc1nc2ccccc2c(=O)n1-c1ccc(Cl)c(NS(=O)(=O)c2ccccc2F)c1` [Compound 22], the “effect on IL-8 secretion, iE-DAP stimulated” value in assay [2] is “inhibited IL-8 secretion”. In assay [3], the “effect on IL-8 release, LPS stimulated” value is on record as “no inhibitory effect”. Further, in assay [4], the “effect on serum KC and IP-10 (CXCL10)” value was “failed to reduce serum KC and IP-10 (CXCL10)”.

As to `CCc1ccc(S(=O)(=O)Nc2cc(-n3c(C)nc4ccccc4c3=O)ccc2F)s1` [GSK223], the “inhibition of any kinase in panel” value in assay [5] was no more than 50%.
